≈ marks a conversion by molar mass, not a printed value. Where two headings read alike, the source gives them in different places.
How the values were obtained:
Type in all cases: cell-based
[1] = molecular target: T1, hERG (Homo sapiens, UniProt Q12809); assay: Cerep automated patch-clamp hERG assay, Chinese Hamster Ovary K1 cells; details: for IC50: Table 19, automated patch-clamp, CHO K1 cells, tail current
T1 construct: host or cells: Chinese Hamster Ovary K1 cells
Method: A Cerep automated patch-clamp assay using Chinese Hamster Ovary K1 cells was used to measure hERG IC50 values. The degree of inhibition (%) was obtained by measuring the tail current amplitude, which is induced by a one second test pulse to −40 mV after a two second pulse to +20 mV, before and after drug incubation (the difference in current was normalized to control and multiplied by 100 to obtain the percent inhibition).
Concentration (log) response curves were fitted to a logistic equation (three parameters assuming complete block of the current at very high test compound concentrations) to generate estimates of the 50% inhibitory concentration (IC50). The concentration-response relationship of each compound was constructed from the percentage reductions of current amplitude by sequential concentrations. The hERG IC50 values are provided in Table 19 below for the compounds tested.

[2] = tested on: E. coli ATCC 25922; assay: MIC, E. coli ATCC 25922; details: Escherichia coli
[3] = tested on: S. aureus ATCC 13709; assay: MIC, S. aureus ATCC 13709; details: Staphylococcus aureus
[4] = tested on: K. pneumoniae ATCC 700603; assay: MIC, K. pneumoniae ATCC 700603; details: Klebsiella pneumoniae, ATCC700603
[5] = tested on: S. pneumoniae ATCC 51916; assay: MIC, S. pneumoniae ATCC 51916; details: Streptococcus pneumoniae, ATCC51916
[6] = tested on: P. aeruginosa ATCC 15692; assay: MIC, P. aeruginosa ATCC 15692; details: Pseudomonas aeruginosa, ATCC15692
[7] = tested on: A. baumannii ATCC 19606; assay: MIC, A. baumannii ATCC 19606; details: Acinetobacter baumannii, ATCC19606
[8] = tested on: Bp; assay: organism not typed; details: read-out: Bp MIC
[9] = tested on: B. thailandensis ATCC E264; assay: microbe, parasite or virus in culture; details: Burkholderia thailandensis, ATCCE264, read-out: Bt MIC
[10] = tested on: F. tularensis holarctica LVS; assay: microbe, parasite or virus in culture; details: Francisella tularensis, read-out: Ft MIC
[11] = ATCC25922, E. coli, Alamar Blue read after overnight incubation at 35° C., read-out: MIC Ec
[12] = ATCC13709, S. aureus, Alamar Blue read after overnight incubation at 35° C., read-out: MIC Sa

T1 sequence (Q12809 whole entry): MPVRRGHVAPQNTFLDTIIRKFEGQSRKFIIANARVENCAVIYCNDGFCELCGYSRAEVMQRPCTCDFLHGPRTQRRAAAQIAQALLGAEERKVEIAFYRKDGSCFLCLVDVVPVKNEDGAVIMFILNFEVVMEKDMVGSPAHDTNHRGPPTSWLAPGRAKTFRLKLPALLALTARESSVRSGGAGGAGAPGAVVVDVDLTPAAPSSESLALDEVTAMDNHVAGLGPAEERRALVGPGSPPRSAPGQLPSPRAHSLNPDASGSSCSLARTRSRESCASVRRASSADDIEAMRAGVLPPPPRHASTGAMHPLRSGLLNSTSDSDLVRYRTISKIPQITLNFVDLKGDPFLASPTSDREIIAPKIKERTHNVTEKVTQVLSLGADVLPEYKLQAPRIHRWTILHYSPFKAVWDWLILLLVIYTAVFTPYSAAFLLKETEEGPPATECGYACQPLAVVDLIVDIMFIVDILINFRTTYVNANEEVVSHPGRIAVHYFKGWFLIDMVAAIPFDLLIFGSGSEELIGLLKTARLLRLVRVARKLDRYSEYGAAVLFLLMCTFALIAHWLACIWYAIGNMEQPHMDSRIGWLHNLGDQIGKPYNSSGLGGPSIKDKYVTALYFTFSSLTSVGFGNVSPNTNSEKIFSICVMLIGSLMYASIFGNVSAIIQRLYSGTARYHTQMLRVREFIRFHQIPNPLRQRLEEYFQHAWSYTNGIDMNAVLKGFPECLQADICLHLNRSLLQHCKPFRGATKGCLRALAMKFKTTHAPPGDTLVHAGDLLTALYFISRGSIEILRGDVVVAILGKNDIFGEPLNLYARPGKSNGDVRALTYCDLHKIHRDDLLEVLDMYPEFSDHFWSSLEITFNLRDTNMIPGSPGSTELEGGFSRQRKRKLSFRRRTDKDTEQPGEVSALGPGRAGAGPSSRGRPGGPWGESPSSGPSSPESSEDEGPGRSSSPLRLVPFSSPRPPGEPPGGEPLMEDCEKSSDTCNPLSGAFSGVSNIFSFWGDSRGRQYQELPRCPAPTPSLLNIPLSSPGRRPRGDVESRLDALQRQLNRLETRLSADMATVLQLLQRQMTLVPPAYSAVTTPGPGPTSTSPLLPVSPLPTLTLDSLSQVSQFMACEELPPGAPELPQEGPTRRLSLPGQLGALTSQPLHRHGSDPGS

Row | SMILES | IC50 [1] [µM] | MIC [2, 11] [µg/mL] | MIC [3, 12] [µg/mL] | MIC ([4]; Table 10, Kpn = K. pneumoniae) [µg/mL] | MIC ([5]; Table 10, Spn = S. pneumoniae) [µg/mL] | MIC ([2]; ATCC25922, Table 10, Ec = E. coli, strain not stated, read-out: Ec MIC) [µg/mL] | MIC ([6]; Table 10, Pa = P. aeruginosa) [µg/mL] | MIC ([7]; Table 10, Ab = A. baumannii, strain not stated) [µg/mL] | MIC ([3]; ATCC13709, Table 10, Sa = S. aureus, read-out: Sa MIC) [µg/mL] | MIC [8] [µg/mL] | MIC ([4]; Table 20, read-out: Kpn MIC) [µg/mL] | selectivity in the hERG assay ([1]; compared with previous compounds in the series) | MIC [9] [µg/mL] | MIC ([5]; Table 20, read-out: Spn MIC) [µg/mL] | MIC ([2]; ATCC25922, Table 20, read-out: Ec MIC) [µg/mL] | MIC ([6]; Table 20, read-out: Pa MIC) [µg/mL] | MIC ([7]; Table 20, read-out: Ab MIC) [µg/mL] | MIC ([3]; ATCC13709, Table 20, read-out: Sa MIC) [µg/mL] | MIC [10] [µg/mL]
1 | CNc1cc(F)cc2c1[nH]c1nc(Oc3cnc([C@@H](C)O)nc3)nc(N3C[C@H]4C[C@@H]3C[C@H]4N)c12 [Compound 4.408] | 6.4 | ≤ 0.5 | ≤ 0.5 |  |  |  |  |  |  |  |  |  |  |  |  |  |  |  | 
2 | CNc1cc(F)cc2c1[nH]c1nc(Oc3cnc(C(C)O)nc3)nc(N3CC4C[C@@H](N)C4C3)c12 (some centres unmarked) [Compound 4.409] | 7.5 | ≤ 0.5 | ≤ 0.5 | 4 (≈ 8.61 µM) | ≤ 0.5 | ≤ 0.5 | 1 (≈ 2.15 µM) | 1 (≈ 2.15 µM) | ≤ 0.5 |  |  |  |  |  |  |  |  |  | 
3 | CNc1cc(F)c(F)c2c1[nH]c1nc(Oc3cnc([C@@H](C)O)nc3)nc(N3C[C@H]4C[C@@H]3C[C@H]4N)c12 [Compound 9.1] | 80 to 100 |  |  |  |  |  |  |  |  | 0.5 (≈ 1.04 µM) | 4 (≈ 8.29 µM) | significantly more selective | 0.5 (≈ 1.04 µM) | ≤ 0.5 | ≤ 0.5 | 2 (≈ 4.15 µM) | 1 (≈ 2.07 µM) | ≤ 0.5 | 0.5 (≈ 1.04 µM)

— patent publication US10865216B2, “Tricyclic Gyrase inhibitors” (MERCK SHARP & DOHME CORP., priority 2012, dated 2020)
